assay: logP determination by HPLC on reversed-phase column, acidic range; assay type: physicochemical; conditions: HPLC reversed-phase column (C 18), 43° C., acidic range: 0.1% aqueous phosphoric acid, acetonitrile; marked a)
Excerpt: (a) Mobile phases for the determination in the acidic range: 0.1% aqueous phosphoric acid, acetonitrile; linear gradient from 10% acetonitrile to 90% acetonitrile—the corresponding measurement results in Table 1 are marked ^a).

**Q.** For `Cc1nn(C)c(O)c1C(=O)c1ccc(Cl)c(NC(=O)N2CCCO2)c1Cl` [Example 185], which logP is on record?
**A.** (I-2) logP = 1.10^a)

**Q.** Which logP does the source give for `CCn1nc(C)c(C(=O)c2ccc(Cl)c(NC(=O)N3CCCO3)c2Cl)c1O` [Example 186] here?
**A.** (I-2) logP = 1.31^a)

same assay, conditions: marked a): acidic range, 0.1% aqueous phosphoric acid/acetonitrile gradient, reversed-phase C 18 HPLC, 43° C.

**Q.** Which logP does the source give for `CCn1ncc(C(=O)c2ccc(C(F)(F)F)cc2NC(=O)N(C)OC)c1O` [Example 7] here?
**A.** (I-1) logP = 2.93^a)

**Q.** Which logP does the source give for `CON(C)C(=O)Nc1cc(C(F)(F)F)ccc1C(=O)c1cnn(C)c1O` [Example 8] here?
**A.** (I-1) logP = 2.50^a)

**Q.** For `CN1CCCN(C(=O)Nc2c(Cl)ccc(C(=O)c3cnn(C)c3O)c2Cl)C1=O` [Example 9], which logP is on record?
**A.** (I-2) logP = 1.55^a)

**Q.** With `Cn1ncc(C(=O)c2ccc(Cl)c(NC(=O)N3CCOCC3)c2Cl)c1O` [Example 10] as the compound, how does the logP read?
**A.** (I-2) logP = 0.82^a)

**Q.** With `CCn1ncc(C(=O)c2ccc(C(F)(F)F)cc2NC(=O)N2CCN(C)C2=O)c1O` [Example 11] as the compound, how does the logP read?
**A.** (I-1) logP = 2.42^a)

**Q.** Which logP does the source give for `CCN1CCN(C(=O)Nc2c(Cl)ccc(C(=O)c3cnn(C)c3O)c2Cl)C1=O` [Example 12] here?
**A.** (I-2) logP = 1.63^a)

**Q.** For `CCN1CCN(C(=O)Nc2c(Cl)ccc(C(=O)c3cnn(CC)c3O)c2Cl)C1=O` [Example 13], which logP is on record?
**A.** (I-2) logP = 1.86^a)

**Q.** For `CCn1ncc(C(=O)c2ccc(Cl)c(NC(=O)NN3CCOCC3)c2Cl)c1O` [Example 14], which logP is on record?
**A.** (I-2) logP = 1.25^a)

**Q.** Which logP does the source give for `Cn1ncc(C(=O)c2ccc(Cl)c(NC(=O)NN3CCOCC3)c2Cl)c1O` [Example 15] here?
**A.** (I-2) logP = 1.03^a)

**Q.** With `Cn1ncc(C(=O)c2ccc(Cl)c(NC(=O)NN3CCCC3)c2Cl)c1O` [Example 16] as the compound, how does the logP read?
**A.** (I-2) logP = 1.17^a)

**Q.** With `CN1CCN(C(=O)Nc2cc(C(F)(F)F)ccc2C(=O)c2cnn(C)c2O)C1=O` [Example 17] as the compound, how does the logP read?
**A.** (I-1) logP = 2.12^a)

**Q.** With `CCN1CCCN(C(=O)Nc2c(Cl)ccc(C(=O)c3cnn(CC)c3O)c2Cl)C1=O` [Example 18] as the compound, how does the logP read?
**A.** (I-2) logP = 2.11^a)

**Q.** With `CCN1CCCN(C(=O)Nc2c(Cl)ccc(C(=O)c3cnn(C)c3O)c2Cl)C1=O` [Example 19] as the compound, how does the logP read?
**A.** (I-2) logP = 1.83^a)

**Q.** For `Cn1ncc(C(=O)c2ccc(Cl)c(NC(=O)NC3CC3)c2Cl)c1O` [Example 21], which logP is on record?
**A.** (I-2) logP = 0.99^a)

**Q.** Which logP does the source give for `Cn1ncc(C(=O)c2ccc(Cl)c(NC(=O)N3CCCC3)c2Cl)c1O` [Example 24] here?
**A.** (I-2) logP = 1.18^a)

**Q.** Which logP does the source give for `CC(C)N1CCCN(C(=O)Nc2c(Cl)ccc(C(=O)c3cnn(C)c3O)c2Cl)C1=O` [Example 33] here?
**A.** (I-2) logP = 2.11^a)

**Q.** With `Cn1ncc(C(=O)c2ccc(Cl)c(NC(=O)NCC3CCCO3)c2Cl)c1O` (stereo not drawn) [Example 41] as the compound, how does the logP read?
**A.** (I-2) logP = 1.10^a)

**Q.** Which logP does the source give for `Cn1ncc(C(=O)c2ccc(Cl)c(NC(=O)Nc3nnc(C(F)(F)F)s3)c2Cl)c1O` [Example 47] here?
**A.** (I-2) logP = 1.99^a)

**Q.** Which logP does the source give for `CCn1ncc(C(=O)c2ccc(Cl)c(N(C)C(=O)N3CCN(C)C3=O)c2Cl)c1O` [Example 99] here?
**A.** (I-2) logP = 1.40^a)

**Q.** With `CCn1ncc(C(=O)c2ccc(Cl)c(NC(=O)NN3CCCC3)c2Cl)c1O` [Example 100] as the compound, how does the logP read?
**A.** (I-2) logP = 1.42^a)

**Q.** Which logP does the source give for `CCn1ncc(C(=O)c2ccc(Cl)c(NC(=O)N3CCCN(C(C)C)C3=O)c2Cl)c1O` [Example 101] here?
**A.** (I-2) logP = 2.42^a)

**Q.** For `CCn1ncc(C(=O)c2ccc(Cl)c(NC(=O)N3CCCN(C4CCCCC4)C3=O)c2Cl)c1O` [Example 102], which logP is on record?
**A.** (I-2) logP = 3.30^a)

**Q.** For `CCn1ncc(C(=O)c2ccc(C(F)(F)F)cc2N(C)C(=O)N2CCN(C)C2=O)c1O` [Example 103], which logP is on record?
**A.** (I-1) logP = 1.78^a)

**Q.** Which logP does the source give for `CCn1ncc(C(=O)c2ccc(Cl)c(NC(=O)NC3CC3)c2Cl)c1O` [Example 104] here?
**A.** (I-2) logP = 1.25^a)

**Q.** For `CCn1ncc(C(=O)c2ccc(Cl)c(NC(=O)NCC3CCCO3)c2Cl)c1O` (stereo not drawn) [Example 105], which logP is on record?
**A.** (I-2) logP = 1.33^a)

**Q.** With `CCn1ncc(C(=O)c2ccc(Cl)c(NC(=O)N3CCCCC3)c2Cl)c1O` [Example 106] as the compound, how does the logP read?
**A.** (I-2) logP = 1.75^a)

**Q.** With `Cn1ncc(C(=O)c2ccc(Cl)c(NC(=O)N3CCCCC3)c2Cl)c1O` [Example 107] as the compound, how does the logP read?
**A.** (I-2) logP = 1.50^a)

**Q.** Which logP does the source give for `CCn1ncc(C(=O)c2ccc(Cl)c(NC(=O)NOC)c2Cl)c1O` [Example 108] here?
**A.** (I-2) logP = 1.06^a)

**Q.** Which logP does the source give for `CONC(=O)Nc1c(Cl)ccc(C(=O)c2cnn(C)c2O)c1Cl` [Example 109] here?
**A.** (I-2) logP = 0.72^a)

**Q.** Which logP does the source give for `CCn1ncc(C(=O)c2ccc(Cl)c(NC(=O)N3CCCC3)c2Cl)c1O` [Example 110] here?
**A.** (I-2) logP = 1.52^a)

**Q.** With `CCn1ncc(C(=O)c2ccc(NC(=O)N3CCN(C)C3=O)cc2OC)c1O` [Example 111] as the compound, how does the logP read?
**A.** (I-3) logP = 1.74^a)

**Q.** With `CCONC(=O)Nc1c(Cl)ccc(C(=O)c2cnn(C)c2O)c1Cl` [Example 127] as the compound, how does the logP read?
**A.** (I-2) logP = 1.07^a)

**Q.** With `CCONC(=O)Nc1c(Cl)ccc(C(=O)c2cnn(CC)c2O)c1Cl` [Example 128] as the compound, how does the logP read?
**A.** (I-2) logP = 1.33^a)

**Q.** Which logP does the source give for `CCn1ncc(C(=O)c2ccc(Cl)c(NC(=O)C3=NOCC3)c2Cl)c1O` [Example 148] here?
**A.** (I-2) logP = 1.45^a)

**Q.** With `Cn1ncc(C(=O)c2ccc(Cl)c(NC(=O)C3=NOCC3)c2Cl)c1O` [Example 149] as the compound, how does the logP read?
**A.** (I-2) logP = 1.18^a)

**Q.** With `CCn1ncc(C(=O)c2ccc(Cl)c(NC(=O)c3ccco3)c2Cl)c1O` [Example 156] as the compound, how does the logP read?
**A.** (I-2) logP = 1.54^a)

**Q.** With `Cn1ncc(C(=O)c2ccc(Cl)c(NC(=O)N3CCCO3)c2Cl)c1O` [Example 161] as the compound, how does the logP read?
**A.** (I-2) logP = 1.11^a)

**Q.** For `CCn1ncc(C(=O)c2ccc(Cl)c(NC(=O)N3CCCO3)c2Cl)c1O` [Example 162], which logP is on record?
**A.** (I-2) logP = 1.38^a)

**Q.** With `CCn1ncc(C(=O)c2ccc(Cl)c(N(C)C(=O)N3CCN(C)C3=O)c2Cl)c1O` [Example 171] as the compound, how does the logP read?
**A.** (I-2) logP = 2.88^a)

**Q.** Which logP does the source give for `CCn1ncc(C(=O)c2ccc(Cl)c(NC(=O)NN3CCCCC3)c2Cl)c1O` [Example 172] here?
**A.** (I-2) logP = 1.96^a)

**Q.** For `Cn1ncc(C(=O)c2ccc(Cl)c(NC(=O)NN3CCCCC3)c2Cl)c1O` [Example 173], which logP is on record?
**A.** (I-2) logP = 1.70^a)

**Q.** Which logP does the source give for `CCn1ncc(C(=O)c2ccc(Cl)c(NC(=O)Nc3nnc(C)o3)c2Cl)c1O` [Example 174] here?
**A.** (I-2) logP = 1.20^a)

**Q.** For `CCn1ncc(C(=O)c2ccc(Cl)c(NC(=O)Nc3nnc(C(F)(F)F)s3)c2Cl)c1O` [Example 175], which logP is on record?
**A.** (I-2) logP = 2.24^a)

**Q.** With `CCn1ncc(C(=O)c2ccc(Cl)c(NC(=O)N=c3sccn3C)c2Cl)c1O` [Example 176] as the compound, how does the logP read?
**A.** (I-2) logP = 1.39^a)

**Q.** For `Cn1ncc(C(=O)c2ccc(Cl)c(NC(=O)N=c3sccn3C)c2Cl)c1O` [Example 177], which logP is on record?
**A.** (I-2) logP = 1.13^a)

**Q.** Which logP does the source give for `CCn1ccsc1=NC(=O)Nc1c(Cl)ccc(C(=O)c2cnn(C)c2O)c1Cl` [Example 178] here?
**A.** (I-2) logP = 1.43^a)

**Q.** With `CCn1ncc(C(=O)c2ccc(Cl)c(NC(=O)N=c3sccn3CC)c2Cl)c1O` [Example 179] as the compound, how does the logP read?
**A.** (I-2) logP = 1.72^a)

**Q.** Which logP does the source give for `CCn1ncc(C(=O)c2ccc(Cl)c(NC(=O)NCC(OC)OC)c2Cl)c1O` [Example 180] here?
**A.** (I-2) logP = 1.13^a)

**Q.** Which logP does the source give for `CCn1ncc(C(=O)c2ccc(Cl)c(NC(=O)N3CCCCO3)c2Cl)c1O` [Example 181] here?
**A.** (I-2) logP = 1.63^a)

**Q.** With `Cn1ncc(C(=O)c2ccc(Cl)c(NC(=O)N3CCCCO3)c2Cl)c1O` [Example 182] as the compound, how does the logP read?
**A.** (I-2) logP = 1.36^a)

**Q.** For `CCn1nc(C)c(C(=O)c2ccc(Cl)c(NC(=O)N3CCCCO3)c2Cl)c1O` [Example 183], which logP is on record?
**A.** (I-2) logP = 1.53^a)

**Q.** For `Cc1nn(C)c(O)c1C(=O)c1ccc(Cl)c(NC(=O)N2CCCCO2)c1Cl` [Example 184], which logP is on record?
**A.** (I-2) logP = 1.34^a)
